Literature values, collected in patent US20240299410A1 (Woolsey Pharmaceuticals, Inc., priority 2022, published 2024).
Counter-ions that a name gives are not always drawn. Like-named read-outs stand apart in the source and are kept apart here.

Columns and labels:
[1] = test system: SOD mice; details: cited from earlier work; for motor function: presymptomatic SOD mice, 30 mg/kg in drinking water (Günther et al. 2014)
[2] = humans, intravenous administration, after an hour; cited from earlier work
[3] = test system: human ALS patients; details: three ALS patients, 30 mg intravenously twice daily over 20 consecutive working days; cited from earlier work
[4] = oral fasudil in drinking water; cited from earlier work
[5] = male SOD mice, both 30 mg/kg and 100 mg/kg (Takata 2013)

SMILES: C[C@@H](N)[C@H]1CC[C@H](C(=O)Nc2ccncc2)CC1 [Y-27632]
- motor function ([1]; female): did not significantly improve motor function
- motor function ([1]; male): improved motor function

SMILES: O=S(=O)(c1cccc2cnccc12)N1CCCNCC1 [fasudil, Hexahydro-1-(5-isoquinolinesulfonyl)-1H-1,4-diazepine monohydrochloride hemihydrate]
- motor behavior ([1]; male SOD mice, 30 mg/kg and 100 mg/kg beginning at disease onset (Günther 2017)): significantly improved motor behavior
- survival time [1, 5]: prolonged survival time
- symptom onset (motor performance, motor neuron loss) [1, 5]: delayed symptom onset
- prolonging disease duration, 100 mg/kg versus 30 mg/kg ([1]; presymptomatic female SOD mice, oral (Tönges et al. 2013)): not as effective at prolonging disease duration as the lower dose
- mixture of fasudil and M3 in CSF [2]: 50/50
- outcome of compassionate use treatment [3]: no conclusive results beyond safety

SMILES: O=S(=O)(c1cccc2c(O)nccc12)N1CCCNCC1 [M3, hydroxyfasudil]
- M3 in male rats relative to female rats [4]: ~7 fold
